Results from patent US8178530B2, “Imidazolopyrazine compounds useful for the treatment of degenerative and inflammatory diseases” (Janssen Pharmaceutica NV, priority 2006, dated 2012).

Tested on: TNFα release by human PBMCs
Assay: Cytokine release by LPS-stimulated human PBMCs (TNFα ELISA)
Format: cell-based
Settings: PBMC, LPS 1 μg/mL, 24 hr
Procedure: Human peripheral blood mononuclear cells (PBMCs) are isolated from “buffy coats” prepared from the blood of healthy volunteers, isolated essentially according to method of Bøyum (1984). In brief, buffy coat is diluted 1:1 with 1×PBS (Gibco) and 30 mL is carefully put on top of 20 mL Lymphoprep™ (Lucron Bioproducts) in 50 mL Falcon tubes. After centrifugation (35 min, 400 g, 18° C.) the mononuclear cells are collected from the white interphase and washed 3 times with 1×PBS by resuspending and centrifugation (10 min, 200 g). Isolated PBMCs are finally resuspended in RPMI 1640 (Cat. No. 21875, Gibco) that is supplemented with 10% heat-inactivated FBS (Hyclone).
For the assay PBMCs are seeded at 2.5E6 cells/mL in 160 μL in 96-well plates (Nunc). Serial dilution of the test compounds are made first in DMSO (Sigma) and then diluted 50-fold in M199 medium (Gibco) containing 1% heat-inactivated FBS. Compounds are further 1/10 diluted in the assay plates to obtain final DMSO concentration of 0.2%. Cells are preincubated with the compounds for 1 hr at 37° C., 5% CO2. Then, cells are stimulated with LPS (Escherichia coli serotype 026:B6, Cat. No. L2654, Sigma) that is added in a volume of 20 μL to a final concentration of 1 μg/mL and cells are further cultured for 24 hr. The plates are centrifuged and the supernatant is collected and stored at −80° C. until analysis of appropriate dilutions in ELISAs.
The following 384-well chemiluminescent ELISA protocol was developed to measure TNFα levels in the supernatant: White Lumitrac 600 384-well plates (Greiner) are coated with (40 μL/well) anti-TNFα capture antibody (Cat. No. 551220, BD Pharmingen) that is diluted to 1 μg/mL in 1×PBS (Gibco). After overnight incubation at 4° C., plates are washed with 1×PBS (80 g NaCl, 2 g KCl (Sigma), 11.5 g Na2HPO4.7H2O and 2 g KH2PO4 in 10 L milliQ; pH 7.4) and blocked with 100 μL/well buffer B (1×PBS containing 1% BSA (Sigma), 5% sucrose (Sigma) and 0.05% NaN3 (Sigma)). After 4 hr incubation at RT, blocking buffer is removed and plates are washed once with PBST (1×PBS with 0.05% Tween-20 (Sigma)). Then, 40 μL of sample is transferred to the ELISA plates and plates are incubated at 4° C. Next day, plates are washed 3 times (twice with PBST and once with PBS) and 35 μL/well biotinylated anti-TNFα antibody (Cat. No. 554511, BD Pharmingen) diluted first to a concentration of 250 ng/ml in buffer D (1×PBS with 1% BSA) is added. After 2 h of incubation at RT, plates are washed as described above and 35 μL/well of a 1/2000 dilution of streptavidin-HRP conjugate (Cat. No. SNN2004, Biosource) in buffer D is added. After 45 min, plates are washed as described above and incubated for 5 min with 50 μL/well BM Chemiluminescence ELISA Substrate POD (Roche). Readout is performed on the Luminoscan Ascent Luminometer (Labsystems) with an integration time of 100 msec delivering raw data (RLU: relative luminescence units). The following controls are included in the experiments, a maximal signal control, in which the cells are activated by LPS but only the 0.2% DMSO vehicle (and thus no compound) is added. This control indicates the maximal level of TNFα that can be achieved in the test. A minimal signal control is also included in these experiments. Here, cells are not triggered. This control returns the basal TNFα levels produced by the PBMCs. The percent inhibition (PIN) of the TNFα release, achieved by the compounds is then calculated based on the RLU data returned by the ELISA with following formula: 100−[((TNFα level compound X at concentration Y−minimal TNFα levels)/(maximal TNFα levels−minimal TNFα levels))×100]. Where compounds are tested at 8 concentrations (1/3 serial dilution), EC50-values can be calculated by curve fitting of the means of the PIN data achieved for a compound at each test concentration. […]

| SMILES | EC50 [nM] |
| --- | --- |
| NC(=O)c1cnc(-c2cnc(Nc3ccc(N4CCOCC4)cc3)c3nccn23)s1 [Compound 158, 2-[8-(4-Morpholin-4-yl-phenylamino)-imidazo[1,2-a]pyrazin-5-yl]-thiazole-5-carboxylic acid amide] | 101 to 500 |
| CCN(CC)CCNS(=O)(=O)c1ccc(Nc2ncc(-c3cn[nH]c3)n3ccnc23)cc1 [Compound 69, N-(2-Diethylaminoethyl)-4-[5-(1H-pyrazol-4-yl)imidazo[1,2-a]pyrazin-8-ylamino]benzenesulfonamide] | 501 to 1000 |
| Cn1nnc(-c2ccc(Nc3ncc(-c4cn[nH]c4)n4ccnc34)cc2)n1 [Compound 169, [4-(2-Methyl-2H-tetrazol-5-yl)-phenyl]-[5-(1H-pyrazol-4-yl)-imidazo[1,2-a]pyrazin-8-yl]-amine] | > 1000 |
| CN1CCN(c2ccc(Nc3ncc(-c4ccc(C(N)=O)s4)n4ccnc34)cc2)CC1 [Compound 127, (4-(4-Methylpiperazin-1-yl)phenyl)-[5-(2-carboxamido-5-thienyl)imidazo[1,2-a]pyrazin-8-yl]amine] | > 1000 |
| O=C(NCCN1CCOCC1)c1ccc(Nc2ncc(-c3cn[nH]c3)n3ccnc23)cc1 [Compound 53] | > 1000 |
| CN1CCN(c2ccc(Nc3ncc(-c4ccc(C(N)=O)cc4)n4ccnc34)cc2F)CC1 [Compound 171, 4-{8-[3-Fluoro-4-(4-methyl-piperazin-1-yl)-phenylamino]-imidazo[1,2-a]pyrazin-5-yl}-benzamide] | > 1000 |
| CN1CCN(c2ccc(Nc3ncc(-c4cc(F)c(C(N)=O)c(F)c4)n4ccnc34)cc2)CC1 [Compound 140] | > 1000 |
| NC(=O)c1ccc(-c2cnc(Nc3ccc(-n4ccnc4)cc3)c3nccn23)cc1 [Compound 167] | 1 to 100 |
| CN1CCN(c2ccc(Nc3ncc(-c4ccc(C(N)=O)cc4)n4ccnc34)cc2)CC1 [Compound 143] | > 1000 |
| c1cn2c(-c3cn[nH]c3)cnc(Nc3ccc(OCCN4CCOCC4)cc3)c2n1 [Compound 150, [4-(2-Morpholin-4-yl-ethoxy)-phenyl]-[5-(1H-pyrazol-4-yl)-imidazo[1,2-a]pyrazin-8-yl]-amine] | > 1000 |
| CN1CCN(c2ccc(Nc3ncc(-c4ccc(C(N)=O)c(Cl)c4)n4ccnc34)cc2)CC1 [Compound 124] | 501 to 1000 |
| CN1CCC(Oc2ccc(Nc3ncc(-c4ccc(C(N)=O)c(F)c4)n4ccnc34)cc2)CC1 [Compound 149] | > 1000 |
| CCN(CC)CCNS(=O)(=O)c1ccc(Nc2ncc(-c3ccc(C(N)=O)cc3)n3ccnc23)cc1 [Compound 98] | > 1000 |
| NS(=O)(=O)c1ccc(Nc2ncc(-c3cn[nH]c3)n3ccnc23)cc1 [Compound 36] | > 1000 |
| O=C(c1ccc(Nc2ncc(-c3cn[nH]c3)n3ccnc23)cc1)N1CCOCC1 [Compound 45] | > 1000 |
| O=C(Nc1ccccc1)c1ccc(Nc2ncc(-c3cn[nH]c3)n3ccnc23)cc1 [Compound 41] | > 1000 |
| c1cn2c(-c3cn[nH]c3C3CC3)cnc(Nc3ccc(N4CCOCC4)cc3)c2n1 [Compound 160, [5-(5-Cyclopropyl-1H-pyrazol-4-yl)-imidazo[1,2-a]pyrazin-8-yl]-(4-morpholin-4-yl-phenyl)-amine] | > 1000 |
| CCN(CC)CCNC(=O)c1ccc(Nc2ncc(-c3cn[nH]c3)n3ccnc23)cc1F [Compound 82] | > 1000 |
| CC(C)N1CCN(c2ccc(Nc3ncc(-c4ccc(C(N)=O)cc4)n4ccnc34)cc2)CC1 [Compound 142] | > 1000 |
| CN1CCC(COc2ccc(Nc3ncc(-c4ccc(C(N)=O)c(F)c4)n4ccnc34)cc2)CC1 [Compound 159, 2-Fluoro-4-{8-[4-(1-methyl-piperidin-4-ylmethoxy)-phenylamino]-imidazo[1,2-a]pyrazin-5-yl}-benzamide] | > 1000 |
| CN1CCN(c2ccc(Nc3ncc(-c4cscn4)n4ccnc34)cc2)CC1 [Compound 138] | 101 to 500 |

| SMILES | EC50 [nM] |
| --- | --- |
| Cc1[nH]ncc1-c1cnc(Nc2ccc(N3CCOCC3)cc2)c2nccn12 [Compound 176] | > 1000 |
| NC(=O)c1ccc(-c2cnc(Nc3ccc(OCCN4CCOCC4)cc3)c3nccn23)cc1F [Compound 146] | > 1000 |
| CN1CCN(c2ccc(Nc3ncc(-c4cn[nH]c4)n4ccnc34)cc2)CC1 [Compound 14] | > 1000 |
| Cc1cc(C(N)=O)ccc1-c1cnc(Nc2ccc(N3CCN(C)CC3)cc2)c2nccn12 [Compound 120] | > 1000 |
| O=C1NCc2cc(-c3cnc(Nc4ccc(N5CCOCC5)cc4)c4nccn34)sc21 [Compound 198, 2-[8-(4-Morpholin-4-yl-phenylamino)-imidazo[1,2-a]pyrazin-5-yl]-4,5-dihydro-thieno[2,3-c]pyrrol-6-one] | > 1000 |
| CN1CCN(c2ccc(Nc3ncc(-c4cc(C(N)=O)cs4)n4ccnc34)cc2)CC1 [Compound 145, 5-{8-[4-(4-Methyl-piperazin-1-yl)-phenylamino]-imidazo[1,2-a]pyrazin-5-yl}-thiophene-3-carboxylic acid amide] | > 1000 |
| CNC(=O)c1ccc(-c2cnc(Nc3ccc(N4CCN(C)CC4)cc3)c3nccn23)cc1 [Compound 116] | > 1000 |
| CN1CCN(c2ccc(Nc3ncc(-c4csc(C(N)=O)c4)n4ccnc34)cc2)CC1 [Compound 118] | > 1000 |
| O=C(NCc1ccc(O)cc1)c1ccc(Nc2ncc(-c3cn[nH]c3)n3ccnc23)cc1 [Compound 90, N-(4-Hydroxybenzyl)-4-[5-(1H-pyrazol-4-yl)imidazo[1,2-a]pyrazin-8-ylamino]benzamide] | > 1000 |
| C[C@@H]1CN(C)[C@@H](C)CN1c1ccc(Nc2ncc(-c3ccc(C(N)=O)cc3)n3ccnc23)cc1 [Compound 137] | > 1000 |
| CN(C)Cc1cn(-c2ccc(Nc3ncc(-c4ccc(C(N)=O)cc4)n4ccnc34)cc2)nn1 [Compound 166, 4-{8-[4-(4-Dimethylaminomethyl-[1,2,3]triazol-1-yl)-phenylamino]-imidazo[1,2-a]pyrazin-5-yl}-benzamide] | > 1000 |
| Cn1cnnc1-c1ccc(Nc2ncc(-c3ccc(C(N)=O)cc3)n3ccnc23)cc1 [Compound 141] | > 1000 |
| C[C@@H]1CN(c2ccc(Nc3ncc(-c4ccc(C(N)=O)cc4)n4ccnc34)cc2)C[C@H](C)N1C [Compound 155] | > 1000 |
| CN1CCN(c2ccc(Nc3ncc(-c4ccc(C(N)=O)nc4)n4ccnc34)cc2)CC1 [Compound 129, 5-{8-[4-(4-Methyl-piperazin-1-yl)-phenylamino]-imidazo[1,2-a]pyrazin-5-yl}-pyridine-2-carboxylic acid amide] | > 1000 |
| CC(C)N1CCN(c2ccc(Nc3ncc(-c4coc(C(N)=O)c4)n4ccnc34)cc2)CC1 [Compound 204, 4-{8-[4-(4-Isopropyl-piperazin-1-yl)-phenylamino]-imidazo[1,2-a]pyrazin-5-yl}-furan-2-carboxylic acid amide] | > 1000 |
| NC(=O)c1ccc(-c2cnc(Nc3ccc(N4CCCCC4)cc3)c3nccn23)cc1 [Compound 144] | 1 to 100 |
| c1cn2c(-c3c[nH]cn3)cnc(Nc3ccc(N4CCOCC4)cc3)c2n1 [Compound 163] | > 1000 |
| O=C1NCc2cc(-c3cnc(Nc4cccnc4)c4nccn34)ccc21 [Compound 197] | > 1000 |
| CCN(CC)CCNC(=O)c1ccc(Nc2ncc(-c3cn[nH]c3)n3ccnc23)c(F)c1 [Compound 83] | > 1000 |
| CN(C)c1ccc(CNC(=O)c2ccc(Nc3ncc(-c4cn[nH]c4)n4ccnc34)cc2)cc1 [Compound 89] | > 1000 |
